{"source": "patent US12239643B2", "about": "“Therapeutic agent for inflammatory diseases, autoimmune diseases, fibrotic diseases, and cancer diseases” (MEIJI SEIKA PHARMA CO., LTD., priority 2018, dated 2025)"}
{"test_system": "PDE4", "experiment": "Evaluation of PDE4 inhibitory activity, scintillation proximity assay", "format": "biochemical", "settings": "scintillation proximity assay; class symbols of Evaluation 1; read-out: PDE4 Inhibitory Activity (concentration for the inhibition rate of 50%, IC50), Evaluation 1", "in_short": "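SPA with [2,8-3H]-cAMP and diluted PDE4 enzyme preparation in 50 mM Tris-HCl pH 7.4, 8.3 mM MgCl2, 1.7 mM EGTA, 3 mg/mL BSA, 120 min at room temperature. Product captured on ZnSO4-containing YSi-SPA beads, scintillation counted; IC50 from inhibition curves vs DMSO control and no-enzyme blank.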", "units": {"IC50": "nM"}}
{"smiles": "OC(c1ccc(-c2nccs2)c2oc(N3CC4CC(C3)N4)nc12)C(F)(F)F", "note": "(centres unmarked) [Example 121, 1-(2-(3,6-Diazabicyclo[3.1.1]heptan-3-yl)-7-(thiazol-2-yl)benzo[d]oxazol-4-yl)-2,2,2-trifluoroethan-1-ol]", "IC50": "< 100"}
{"smiles": "COC(c1ccc(-c2nccs2)c2oc(N3CC4CC(C3)N4)nc12)C(F)(F)F", "note": "(centres unmarked) [Example 122, 2-(3,6-Diazabicyclo[3.1.1]heptan-3-yl)-7-(thiazol-2-yl)-4-(2,2,2-trifluoro-1-methoxyethyl)benzo[d]oxazole]", "IC50": "< 100"}
{"smiles": "COC(c1ccc(-c2nccs2)c2oc(N3CC4CC(C3)N4)nc12)C(F)(F)F", "note": "(centres unmarked) [Example 123, 2-(3,6-Diazabicyclo[3.1.1]heptan-3-yl)-7-(thiazol-2-yl)-4-(2,2,2-trifluoro-1-methoxyethyl)benzo[d]oxazole]", "IC50": "< 100"}
{"smiles": "CC(O)c1ccc(-c2nccs2)c2oc(N3CC4CCC(C3)N4)nc12", "note": "(centres unmarked) [Example 124, 1-(2-(3,8-Diazabicyclo[3.2.1]octan-3-yl)-7-(thiazol-2-yl)benzo[d]oxazol-4-yl)ethan-1-ol]", "IC50": "< 100"}
{"smiles": "OC(c1ccc(-c2nccs2)c2oc(N3CC4CC(C3)N4)nc12)C(F)F", "note": "(centres unmarked) [Example 125, 1-(2-(3,6-Diazabicyclo[3.1.1]heptan-3-yl)-7-(thiazol-2-yl)benzo[d]oxazol-4-yl)-2,2-difluoroethan-1-ol]", "IC50": "< 100"}
{"smiles": "CC(O)(c1ccc(-c2nccs2)c2oc(N3CC4CC(C3)N4)nc12)C(F)F", "note": "(centres unmarked) [Example 126, 2-(2-(3,6-Diazabicyclo[3.1.1]heptan-3-yl)-7-(thiazol-2-yl)benzo[d]oxazol-4-yl)-1,1-difluoropropan-2-ol]", "IC50": "< 100"}
{"smiles": "CC(C)(O)COC(c1ccc(-c2nccs2)c2oc(N3CC4CC(C3)N4)nc12)C(F)F", "note": "(centres unmarked) [Example 127, 1-(1-(2-(3,6-Diazabicyclo[3.1.1]heptan-3-yl)-7-(thiazol-2-yl)benzo[d]oxazol-4-yl)-2,2-difluoroethoxy)-2-methylpropan-2-ol]", "IC50": "< 100"}
{"smiles": "OC(c1ccc(-c2nccs2)c2oc(N3CC4CCC(C3)N4)nc12)C(F)F", "note": "(centres unmarked) [Example 128, 1-(2-(3,8-Diazabicyclo[3.2.1]octan-3-yl)-7-(thiazol-2-yl)benzo[d]oxazol-4-yl)-2,2-difluoroethan-1-ol]", "IC50": "< 100"}
{"smiles": "CC(O)(c1ccc(-c2nccs2)c2oc(N3CC4CCC(C3)N4)nc12)C(F)F", "note": "(centres unmarked) [Example 129, 2-(2-(3,8-Diazabicyclo[3.2.1]octan-3-yl)-7-(thiazol-2-yl)benzo[d]oxazol-4-yl)-1,1-difluoropropan-2-ol]", "IC50": "< 100"}
{"smiles": "COC(c1ccc(-c2nccs2)c2oc(N3CC4CC(C3)N4)nc12)C(F)F", "note": "(centres unmarked) [Example 130, 2-(3,6-Diazabicyclo[3.1.1]heptan-3-yl)-4-(2,2-difluoro-1-methoxyethyl)-7-(thiazol-2-yl)benzo[d]oxazole]", "IC50": "< 100"}
{"smiles": "COC(c1ccc(-c2nccs2)c2oc(N3CC4CCC(C3)N4)nc12)C(F)F", "note": "(centres unmarked) [Example 131, 2-(3,8-Diazabicyclo[3.2.1]octan-3-yl)-4-(2,2-difluoro-1-methoxyethyl)-7-(thiazol-2-yl)benzo[d]oxazole]", "IC50": "< 100"}
{"smiles": "OCc1ccc(-c2nccs2)c2oc(N3CC4CCC(C3)N4)nc12", "note": "[Example 132, (2-(3,8-Diazabicyclo[3.2.1]octan-3-yl)-7-(thiazol-2-yl)benzo[d]oxazol-4-yl)methanol]", "IC50": "< 100"}
{"smiles": "OCc1ccc(-c2nccs2)c2oc(N3CC4CC(C3)N4)nc12", "note": "[Example 133, (2-(3,6-Diazabicyclo[3.1.1]heptan-3-yl)-7-(thiazol-2-yl)benzo[d]oxazol-4-yl)methanol]", "IC50": "< 100"}
{"smiles": "OCc1ccc(-c2nccs2)c2oc(N3CC4CCCC(C3)N4)nc12", "note": "[Example 134, (2-(3,9-Diazabicyclo[3.3.1]nonan-3-yl)-7-(thiazol-2-yl)benzo[d]oxazol-4-yl)methanol]", "IC50": "< 100"}
{"smiles": "OC(c1cc(-c2nccs2)c2oc(N3CC4CC(C3)N4)nc2c1)C(F)(F)F", "note": "(centres unmarked) [Example 135, 1-(2-(3,6-Diazabicyclo[3.1.1]heptan-3-yl)-7-(thiazol-2-yl)benzo[d]oxazol-5-yl)-2,2,2-trifluoroethan-1-ol]", "IC50": "< 100"}
{"smiles": "OC(c1cc(-c2nccs2)c2oc(N3CC4CCCC(C3)N4)nc2c1)C(F)(F)F", "note": "(centres unmarked) [Example 136, 1-(2-(3,9-Diazabicyclo[3.3.1]nonan-3-yl)-7-(thiazol-2-yl)benzo[d]oxazol-5-yl)-2,2,2-trifluoroethan-1-ol]", "IC50": "< 100"}
{"smiles": "OC(c1cc(-c2nccs2)c2oc(N3CC4CCC(C3)N4)nc2c1)C(F)(F)F", "note": "(centres unmarked) [Example 138, 1-(2-(3,8-Diazabicyclo[3.2.1]octan-3-yl)-7-(thiazol-2-yl)benzo[d]oxazol-5-yl)-2,2,2-trifluoroethan-1-ol]", "IC50": "< 100"}
{"smiles": "OC(c1cc(-c2nccs2)c2oc(N3CC4CCC(C3)N4)nc2c1)C(F)(F)F", "note": "(centres unmarked) [Example 139, 1-(2-(3,8-Diazabicyclo[3.2.1]octan-3-yl)-7-(thiazol-2-yl)benzo[d]oxazol-5-yl)-2,2,2-trifluoroethan-1-ol]", "IC50": "< 100"}
{"smiles": "OC(c1cc(-n2cccn2)c2oc(N3CC4CCC(C3)N4)nc2c1)C(F)(F)F", "note": "(centres unmarked) [Example 140, 1-(2-(3,8-Diazabicyclo[3.2.1]octan-3-yl)-7-(1H-pyrazol-1-yl)benzo[d]oxazol-5-yl)-2,2,2-trifluoroethan-1-ol]", "IC50": "< 100"}
{"smiles": "CC(=O)OC(c1cc(-c2nccs2)c2oc(N3CC4CCC(C3)N4)nc2c1)C(F)(F)F", "note": "(centres unmarked) [Example 141, 1-(2-(3,8-Diazabicyclo[3.2.1]octan-3-yl)-7-(thiazol-2-yl)benzo[d]oxazol-5-yl)-2,2,2-trifluoroethyl acetate]", "IC50": "< 100"}
{"smiles": "COC(c1cc(-c2nccs2)c2oc(N3CC4CCC(C3)N4)nc2c1)C(F)(F)F", "note": "(centres unmarked) [Example 142, 2-(3,8-Diazabicyclo[3.2.1]octan-3-yl)-7-(thiazol-2-yl)-5-(2,2,2-trifluoro-1-methoxyethyl)benzo[d]oxazole]", "IC50": "< 100"}
{"smiles": "COC(c1cc(-c2nccs2)c2oc(N3CC4CCC(C3)N4)nc2c1)C(F)(F)F", "note": "(centres unmarked) [Example 143, 2-(3,8-Diazabicyclo[3.2.1]octan-3-yl)-7-(thiazol-2-yl)-5-(2,2,2-trifluoro-1-methoxyethyl)benzo[d]oxazole]", "IC50": "< 100"}
{"smiles": "COC(c1cc(-c2nccs2)c2oc(N3CC4CC(C3)N4)nc2c1)C(F)(F)F", "note": "(centres unmarked) [Example 144, 2-(3,6-Diazabicyclo[3.1.1]heptan-3-yl)-7-(thiazol-2-yl)-5-(2,2,2-trifluoro-1-methoxyethyl)benzo[d]oxazole]", "IC50": "< 100"}
{"smiles": "COC(c1cc(-c2nccs2)c2oc(N3CC4CCCC(C3)N4)nc2c1)C(F)(F)F", "note": "(centres unmarked) [Example 145, 2-(3,9-Diazabicyclo[3.3.1]nonan-3-yl)-7-(thiazol-2-yl)-5-(2,2,2-trifluoro-1-methoxyethyl)benzo[d]oxazole]", "IC50": "< 100"}
{"smiles": "FC(F)(F)COC(c1cc(-c2nccs2)c2oc(N3CC4CCC(C3)N4)nc2c1)C(F)(F)F", "note": "(centres unmarked) [Example 146, 2-(3,8-Diazabicyclo[3.2.1]octan-3-yl)-7-(thiazol-2-yl)-5-(2,2,2-trifluoro-1-(2,2,2-trifluoroethoxy)ethyl)benzo[d]oxazole]", "IC50": "< 100"}
{"smiles": "COCCOC(c1cc(-c2nccs2)c2oc(N3CC4CCC(C3)N4)nc2c1)C(F)(F)F", "note": "(centres unmarked) [Example 147, 2-(3,8-Diazabicyclo[3.2.1]octan-3-yl)-7-(thiazol-2-yl)-5-(2,2,2-trifluoro-1-(2-methoxyethoxy)ethyl)benzo[d]oxazole]", "IC50": "< 100"}
{"smiles": "CCOC(c1cc(-c2nccs2)c2oc(N3CC4CCC(C3)N4)nc2c1)C(F)(F)F", "note": "(centres unmarked) [Example 148, 2-(3,8-Diazabicyclo[3.2.1]octan-3-yl)-5-(1-ethoxy-2,2,2-trifluoroethyl)-7-(thiazol-2-yl)benzo[d]oxazole]", "IC50": "< 100"}
{"smiles": "OCCOC(c1cc(-c2nccs2)c2oc(N3CC4CCC(C3)N4)nc2c1)C(F)(F)F", "note": "(centres unmarked) [Example 149, 2-(1-(2-(3,8-Diazabicyclo[3.2.1]octan-3-yl)-7-(thiazol-2-yl)benzo[d]oxazol-5-yl)-2,2,2-trifluoroethoxy)ethan-1-ol]", "IC50": "< 100"}
{"smiles": "CCOC(c1cc(-c2nccs2)c2oc(N3CC4CC(C3)N4)nc2c1)C(F)(F)F", "note": "(centres unmarked) [Example 150, 2-(3,6-Diazabicyclo[3.1.1]heptan-3-yl)-5-(1-ethoxy-2,2,2-trifluoroethyl)-7-(thiazol-2-yl)benzo[d]oxazole]", "IC50": "< 100"}
{"smiles": "FC(F)(F)COC(c1cc(-c2nccs2)c2oc(N3CC4CC(C3)N4)nc2c1)C(F)(F)F", "note": "(centres unmarked) [Example 151, 2-(3,6-Diazabicyclo[3.1.1]heptan-3-yl)-7-(thiazol-2-yl)-5-(2,2,2-trifluoro-1-(2,2,2-trifluoroethoxy)ethyl)benzo[d]oxazole]", "IC50": "< 100"}
{"smiles": "N#CCOC(c1cc(-c2nccs2)c2oc(N3CC4CC(C3)N4)nc2c1)C(F)(F)F", "note": "(centres unmarked) [Example 152, 2-(1-(2-(3,6-Diazabicyclo[3.1.1]heptan-3-yl)-7-(thiazol-2-yl)benzo[d]oxazol-5-yl)-2,2,2-trifluoroethoxy)acetonitrile]", "IC50": "< 100"}
{"smiles": "N#CCOC(c1cc(-c2nccs2)c2oc(N3CC4CCC(C3)N4)nc2c1)C(F)(F)F", "note": "(centres unmarked) [Example 153, 2-(1-(2-(3,8-Diazabicyclo[3.2.1]octan-3-yl)-7-(thiazol-2-yl)benzo[d]oxazol-5-yl)-2,2,2-trifluoroethoxy)acetonitrile]", "IC50": "< 100"}
{"smiles": "COCCOC(c1cc(-c2nccs2)c2oc(N3CC4CC(C3)N4)nc2c1)C(F)(F)F", "note": "(centres unmarked) [Example 154, 2-(3,6-Diazabicyclo[3.1.1]heptan-3-yl)-7-(thiazol-2-yl)-5-(2,2,2-trifluoro-1-(2-methoxyethoxy)ethyl)benzo[d]oxazole]", "IC50": "< 100"}
{"smiles": "CC(O)COC(c1cc(-c2nccs2)c2oc(N3CC4CCC(C3)N4)nc2c1)C(F)(F)F", "note": "(centres unmarked) [Example 155, 1-(1-(2-(3,8-Diazabicyclo[3.2.1]octan-3-yl)-7-(thiazol-2-yl)benzo[d]oxazol-5-yl)-2,2,2-trifluoroethoxy)propan-2-ol]", "IC50": "< 100"}
{"smiles": "OC(O)(c1cc(-c2nccs2)c2oc(N3CC4CCCC(C3)N4)nc2c1)C(F)(F)F", "note": "[Example 156, 1-(2-(3,9-Diazabicyclo[3.3.1]nonan-3-yl)-7-(thiazol-2-yl)benzo[d]oxazol-5-yl)-2,2,2-trifluoroethane-1,1-diol]", "IC50": "< 100"}
